According to patent US20110143948A1, “MOLECULAR SIGNATURES AND BIOMARKERS ASSOCIATED WITH MELANOMA AND METHODS OF USE THEREOF” (priority 2008, published 2011):

Tested on: ncRNAs (SEQ ID NO 28-89)
Assay: ncRNA arrays of melanocytes, keratinocytes, normal skin, melanoma cell lines and patient samples
Parameters: species or system human
Settings: for ncRNA array expression, patient 2: melanoma patient 2 sample compared to normal skin; for ncRNA array expression, patient 3: melanoma patient 3 sample compared to normal skin; for ncRNA array expression, patient 4: melanoma patient 4 sample compared to normal skin; for ncRNA array expression, patient 5: melanoma patient 5 sample compared to normal skin; for ncRNA array expression, patient 6: melanoma patient 6 sample compared to normal skin; for ncRNA array expression, patient 7: melanoma patient 7 sample compared to normal skin; for ncRNA array expression, patient 8: melanoma patient 8 sample compared to normal skin; for ncRNA array expression, patient 9: melanoma patient 9 sample compared to normal skin; for ncRNA array expression, patient 10: melanoma patient 10 sample compared to normal skin; for ncRNA array expression, patient 19: melanoma patient 19 sample compared to normal skin; for ncRNA array expression, patient 20: melanoma patient 20 sample compared to normal skin; for ncRNA array expression, patient 21: melanoma patient 21 sample compared to normal skin; for ncRNA array expression, patient 22: melanoma patient 22 sample compared to normal skin; for ncRNA array expression, patient 23: melanoma patient 23 sample compared to normal skin; for ncRNA array expression, patient 24: melanoma patient 24 sample compared to normal skin; for ncRNA array expression, patient 25: melanoma patient 25 sample compared to normal skin; for ncRNA array expression, patient 26: melanoma patient 26 sample compared to normal skin; for ncRNA array expression, patient 27: melanoma patient 27 sample compared to normal skin; for ncRNA array expression, patient 28: melanoma patient 28 sample compared to normal skin; for ncRNA array expression, patient 29: melanoma patient 29 sample compared to normal skin; for ncRNA array expression, patient 30: melanoma patient 30 sample compared to normal skin
Summary of the method: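 Differential ncRNA expression was defined against melanocytes or normal skin after subtracting keratinocyte-specific signals, with confirmation by qRT-PCR and Northern blot. Samples were melanoma cell lines, patient tumours, melanocytes, keratinocytes and normal skin, hybridised to a >10,000-probe (>200 nt) ncRNA array that also carries RefSeq mRNA probes.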

Substance: SEQ ID NO 61 (CATACATTGCCCTCACTAATCAATGGACATTTCAGCATTTCATTACTAATTTTGAGAGAA; listed as DNA, chemistry not given here; listed as Homo sapiens)
- ncRNA array expression, patient 2: 1.244
- ncRNA array expression, patient 3: 1.117
- ncRNA array expression, patient 4: 1.12
- ncRNA array expression, patient 5: 3.917
- ncRNA array expression, patient 6: 0.992
- ncRNA array expression, patient 7: 2.069
- ncRNA array expression, patient 8: 1.86
- ncRNA array expression, patient 9: 1.694
- ncRNA array expression, patient 10: 3.678
- ncRNA array expression, patient 19: 0.6865
- ncRNA array expression, patient 20: −0.03568
- ncRNA array expression, patient 21: 1.984
- ncRNA array expression, patient 22: −0.1143
- ncRNA array expression, patient 23: 0.5527
- ncRNA array expression, patient 24: 3.802
- ncRNA array expression, patient 25: 2.349
- ncRNA array expression, patient 26: 2.817
- ncRNA array expression, patient 27: 1.264
- ncRNA array expression, patient 28: 2.585
- ncRNA array expression, patient 29: 3.112
- ncRNA array expression, patient 30: 0.254

Substance: SEQ ID NO 62 (AATCGTTAATATCATTGATATTAAGTAATTTCCCCACTCTGAGTGAATACTTTGATGATG; listed as DNA, chemistry not given here; listed as Homo sapiens)
- ncRNA array expression, patient 2: 1.565
- ncRNA array expression, patient 3: 1.466
- ncRNA array expression, patient 4: 3.47
- ncRNA array expression, patient 5: 1.994
- ncRNA array expression, patient 6: 0.5751
- ncRNA array expression, patient 7: 2.152
- ncRNA array expression, patient 8: 0.2609
- ncRNA array expression, patient 9: 0.5801
- ncRNA array expression, patient 10: 1.264
- ncRNA array expression, patient 19: 1.414
- ncRNA array expression, patient 20: 1.836
- ncRNA array expression, patient 21: 0.6984
- ncRNA array expression, patient 22: 0.4968
- ncRNA array expression, patient 23: −0.5784
- ncRNA array expression, patient 24: 3.5
- ncRNA array expression, patient 25: 3.363
- ncRNA array expression, patient 26: 2.394
- ncRNA array expression, patient 27: 1.855
- ncRNA array expression, patient 28: 1.418
- ncRNA array expression, patient 29: 1.3702
- ncRNA array expression, patient 30: −1.545

Substance: SEQ ID NO 63 (CTCACACGCACCCTTTCACTGTTTCTTAGTAATTTGTTTGTCTACAGACACAGACGGGAA; listed as DNA, chemistry not given here; listed as Homo sapiens)
- ncRNA array expression, patient 2: −1.694
- ncRNA array expression, patient 3: −1.565
- ncRNA array expression, patient 4: −1.396
- ncRNA array expression, patient 5: −1.315
- ncRNA array expression, patient 6: −0.5921
- ncRNA array expression, patient 7: −1.305
- ncRNA array expression, patient 8: −1.26
- ncRNA array expression, patient 9: −1.429
- ncRNA array expression, patient 10: −1.417
- ncRNA array expression, patient 19: −1.154
- ncRNA array expression, patient 20: −1.232
- ncRNA array expression, patient 21: −1.397
- ncRNA array expression, patient 22: −0.3562
- ncRNA array expression, patient 23: −0.04699
- ncRNA array expression, patient 24: −1.093
- ncRNA array expression, patient 25: −2.099
- ncRNA array expression, patient 26: −2.008
- ncRNA array expression, patient 27: −1.525
- ncRNA array expression, patient 28: −1.601
- ncRNA array expression, patient 29: −1.862
- ncRNA array expression, patient 30: 1.622

Substance: SEQ ID NO 64 (TTGCCTAGGAACAAAGAAGGCTTGTGAGGAGATCAAGGAACTTACATGAAATTGTAGGAA; listed as DNA, chemistry not given here; listed as Homo sapiens)
- ncRNA array expression, patient 2: 2.496
- ncRNA array expression, patient 3: 1.673
- ncRNA array expression, patient 4: 4.824
- ncRNA array expression, patient 5: 1.546
- ncRNA array expression, patient 6: 1.8
- ncRNA array expression, patient 7: 1.389
- ncRNA array expression, patient 8: 2.2638
- ncRNA array expression, patient 9: 1.339
- ncRNA array expression, patient 10: 2.481
- ncRNA array expression, patient 19: 0.2184
- ncRNA array expression, patient 20: 2.311
- ncRNA array expression, patient 21: 2.601
- ncRNA array expression, patient 22: 1.302
- ncRNA array expression, patient 23: 0.9911
- ncRNA array expression, patient 24: 2.424
- ncRNA array expression, patient 25: 2.502
- ncRNA array expression, patient 26: 2.729
- ncRNA array expression, patient 27: 2.69
- ncRNA array expression, patient 28: 2.932
- ncRNA array expression, patient 29: 1.473
- ncRNA array expression, patient 30: −2.097

Substance: SEQ ID NO 65 (CACCGTTTTACTTTTTGTGGGGAGGGGAAGCAGTATCAAAATTTCTTCGGGCGCCAGAAC; listed as DNA, chemistry not given here; listed as Homo sapiens)
- ncRNA array expression, patient 2: −1.177
- ncRNA array expression, patient 3: −1.344
- ncRNA array expression, patient 4: −1.215
- ncRNA array expression, patient 5: −1.301
- ncRNA array expression, patient 6: −1.643
- ncRNA array expression, patient 7: −1.264
- ncRNA array expression, patient 8: −1.391
- ncRNA array expression, patient 9: −1.267
- ncRNA array expression, patient 10: −0.3046
- ncRNA array expression, patient 19: −0.6567
- ncRNA array expression, patient 20: −1.283
- ncRNA array expression, patient 21: −1.289
- ncRNA array expression, patient 22: −1.03
- ncRNA array expression, patient 23: −1.597
- ncRNA array expression, patient 24: −1.241
- ncRNA array expression, patient 25: −1.384
- ncRNA array expression, patient 26: −1.415
- ncRNA array expression, patient 27: −1.388
- ncRNA array expression, patient 28: −1.421
- ncRNA array expression, patient 29: −1.2518
- ncRNA array expression, patient 30: 0.5803

Substance: SEQ ID NO 66 (TCCTTTTTATCTTGCACTCAGATGGTATTTTTAGAGATGTTTCTTCAATCAAAACAAGAT; listed as DNA, chemistry not given here; listed as Homo sapiens)
- ncRNA array expression, patient 2: 2.553
- ncRNA array expression, patient 3: 2.044
- ncRNA array expression, patient 4: 2.799
- ncRNA array expression, patient 5: 1.983
- ncRNA array expression, patient 6: 2.127
- ncRNA array expression, patient 7: 2.319
- ncRNA array expression, patient 8: 2.869
- ncRNA array expression, patient 9: 1.498
- ncRNA array expression, patient 10: 1.587
- ncRNA array expression, patient 19: 0.7228
- ncRNA array expression, patient 20: 2.462
- ncRNA array expression, patient 21: 2.263
- ncRNA array expression, patient 22: 1.15
- ncRNA array expression, patient 23: 1.37
- ncRNA array expression, patient 24: 1.434
- ncRNA array expression, patient 25: 2.534
- ncRNA array expression, patient 26: 2.984
- ncRNA array expression, patient 27: 2.334
- ncRNA array expression, patient 28: 2.749
- ncRNA array expression, patient 29: 3.271
- ncRNA array expression, patient 30: −2.558

Substance: SEQ ID NO 67 (TTCCCTATTCCATCCTTTGATGGGTGGCCTGTTACACGTTTGGAAATAAAAACAAGTGGG; listed as DNA, chemistry not given here; listed as Homo sapiens)
- ncRNA array expression, patient 2: 2.053
- ncRNA array expression, patient 3: 1.721
- ncRNA array expression, patient 4: 0.6532
- ncRNA array expression, patient 5: 4.146
- ncRNA array expression, patient 6: 1.481
- ncRNA array expression, patient 7: 2.486
- ncRNA array expression, patient 8: 1.375
- ncRNA array expression, patient 9: 1.111
- ncRNA array expression, patient 10: 3.887
- ncRNA array expression, patient 19: 0.7069
- ncRNA array expression, patient 20: 1.071
- ncRNA array expression, patient 21: 3.856
- ncRNA array expression, patient 22: 1.186
- ncRNA array expression, patient 23: 2.369
- ncRNA array expression, patient 24: 1.045
- ncRNA array expression, patient 25: 0.3622
- ncRNA array expression, patient 26: 0.8179
- ncRNA array expression, patient 27: 1.392
- ncRNA array expression, patient 28: 6.659
- ncRNA array expression, patient 29: 2.096
- ncRNA array expression, patient 30: −1.191

Substance: SEQ ID NO 68 (CAAAAAGAAATCTTGTTTACTTGTAAAAATATAGACTACCTCCTACTTGCCACCGTTAAG; listed as DNA, chemistry not given here; listed as Homo sapiens)
- ncRNA array expression, patient 2: −1.029
- ncRNA array expression, patient 3: −0.899
- ncRNA array expression, patient 4: −1.233
- ncRNA array expression, patient 5: −1.828
- ncRNA array expression, patient 6: −0.6441
- ncRNA array expression, patient 7: −2.078
- ncRNA array expression, patient 8: −0.8097
- ncRNA array expression, patient 9: −1.121
- ncRNA array expression, patient 10: −1.445
- ncRNA array expression, patient 19: −0.5985
- ncRNA array expression, patient 20: −1.379
- ncRNA array expression, patient 21: −1.385
- ncRNA array expression, patient 22: −0.8953
- ncRNA array expression, patient 23: −0.7105
- ncRNA array expression, patient 24: −1.38
- ncRNA array expression, patient 25: −1.607
- ncRNA array expression, patient 26: −1.329
- ncRNA array expression, patient 27: −1.5151
- ncRNA array expression, patient 28: −1.556
- ncRNA array expression, patient 29: −1.309
- ncRNA array expression, patient 30: −0.1058
